In ChEMBL document CHEMBL1933021, “Novel and selective spiroindoline-based inhibitors of Sky kinase” (Bioorg Med Chem Lett, 2012):
Values after ≈ are worked out from the molar mass of the structure shown. Active and inactive are the calls of the source. The rule behind the calls is not given here.

Key:
Tyro3 (Mus musculus) = test: Inhibition of mouse Sky kinase assessed as inhibition of src substrate phosphorylation by ELISA
[1] = Aqueous solubility of compound at pH 6.5; type: physicochemical
Cytochrome P450 2D6 = Cytochrome P450 2D6 (Homo sapiens, UniProt P10635); test: Inhibition of CYP2D6 using dextromethorphan as substrate; type: ADME
Chain of Cytochrome P450 2D6 (P10635 whole entry): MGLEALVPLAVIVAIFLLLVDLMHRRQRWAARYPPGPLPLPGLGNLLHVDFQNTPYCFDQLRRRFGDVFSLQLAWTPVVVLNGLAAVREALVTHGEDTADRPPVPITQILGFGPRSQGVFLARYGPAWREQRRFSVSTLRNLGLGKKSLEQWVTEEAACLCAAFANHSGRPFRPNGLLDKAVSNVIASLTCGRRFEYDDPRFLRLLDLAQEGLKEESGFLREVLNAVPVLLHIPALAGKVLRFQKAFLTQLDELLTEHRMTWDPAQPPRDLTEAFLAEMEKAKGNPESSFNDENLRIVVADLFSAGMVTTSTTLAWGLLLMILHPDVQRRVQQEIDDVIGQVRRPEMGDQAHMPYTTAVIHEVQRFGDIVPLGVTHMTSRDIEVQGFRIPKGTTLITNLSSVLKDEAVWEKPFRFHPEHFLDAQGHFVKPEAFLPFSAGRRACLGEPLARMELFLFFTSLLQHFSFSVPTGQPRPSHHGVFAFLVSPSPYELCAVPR

Rattus norvegicus = test: Volume of distribution at steady state in po dosed Sprague-Dawley rat; type: ADME, organism-based; conditions: in vivo
[2] = Clearance in po dosed Sprague-Dawley rat; type: ADME, organism-based; conditions: in vivo
[3] = Permeability of the compound by PAMPA assay; type: ADME; conditions: read-out: permeability
[4] = Half life in po dosed Sprague-Dawley rat; type: ADME, organism-based; conditions: in vivo
[5] = Oral bioavailability in Sprague-Dawley rat; type: ADME, organism-based; conditions: in vivo
[6] = Half life in human liver microsomes; type: ADME, Microsome

Row | Structure (SMILES) | inhibition (Tyro3 (Mus musculus)) | other results
1 | O=C(c1cc2cc(F)ccc2[nH]1)N1C[C@@]2(CCN(C3CNC3)C2)c2ccccc21 | Active | –
2 | COc1ccc2cc(C(=O)N3C[C@@]4(CCN(C5CCNC5)C4)c4ccccc43)[nH]c2c1 (stereo partly specified) | Active | –
3 | Cc1ccc(N2CC[C@]3(C2)CN(C(=O)c2cc4cc(F)ccc4[nH]2)c2ccccc23)cn1 | Active | –
4 | O=C(c1cc2cc(Cl)ccc2[nH]1)N1C[C@@]2(CCN(C3CCNC3)C2)c2ccccc21 (stereo partly specified) | Active | –
5 | O=C(c1cc2cc(F)ccc2[nH]1)N1C[C@@]2(CCN(C3CCCCC3)C2)c2ccccc21 | Active | –
6 | COc1ccc2[nH]c(C(=O)N3C[C@@]4(CCN(C5CCNC5)C4)c4ccccc43)cc2c1 (stereo partly specified) | Active | –
7 | CCN1CCCC(N2CC[C@@]3(CN(C(=O)c4cc5cc(F)ccc5[nH]4)c4ccccc43)C2)C1 (stereo partly specified) | Active | –
8 | O=C(c1cc2cc(Cl)ccc2[nH]1)N1C[C@]2(CCN(C3CCNC3)C2)c2ccccc21 (stereo partly specified) | – | solubility [1]: 5.2 µM (≈ 2.19 µg/mL); IC50 (Cytochrome P450 2D6): 14 nM; Vdss (Rattus norvegicus): 13 L/kg; CL/F [2]: 60 mL/min/kg; Papp [3]: 0.03 ×10⁻⁶ cm/s; half-life [4]: 3.1 h; bioavailability [5]: 14%; half-life [6]: 1 h
9 | O=C(c1cc2c(Cl)cccc2[nH]1)N1C[C@@]2(CCN(C3CCNC3)C2)c2ccccc21 (stereo partly specified) | Active | –
10 | O=C(c1cc2cc(F)ccc2[nH]1)N1C[C@@]2(CCN(CC3CCCNC3)C2)c2ccccc21 (stereo partly specified) | Active | –
11 | NC(=O)c1ccc2cc(C(=O)N3C[C@@]4(CCN(C5CCNC5)C4)c4ccccc43)[nH]c2c1 (stereo partly specified) | Active | –
12 | Cc1ccc2[nH]c(C(=O)N3C[C@@]4(CCN(C5CCNC5)C4)c4ccccc43)cc2c1 (stereo partly specified) | Active | –
13 | O=C(c1cc2cc(Cl)ccc2[nH]1)N1C[C@@]2(CCN(C3CCNCC3)C2)c2ccccc21 | Active | –
14 | O=C(c1cc2cc(Cl)ccc2[nH]1)N1C[C@@]2(CCN(C3CCCNC3)C2)c2ccccc21 (stereo partly specified) | Active | –
